Legend:
[1] = tested on: Molt-4 lymphoblastic leukemia cells; test: Cytotoxicity of jasmonate derivatives in Molt-4 cells (Example 1, XTT/MTS assay); assay type: cell-based, Human; settings: for Cytotoxic potency at 0.1 mM, first screening: Molt-4, 0.1 mM; for Cytotoxic potency, second screen: Molt-4, 0.01-0.1 mM, FIG. 2; for Cytotoxic potency compared to methyl jasmonate, first screening: Molt-4, 0.1-1 mM, FIGS. 1A and 1B; for Cytotoxic potency compared to methyl jasmonate, third screen: Molt-4, FIG. 3 and Table 1; for inhibition at 1 µM / inhibition at 10 µM / inhibition at 100 µM: Homo sapiens, MOLT-4, 24 hours, value (±spread), read-out: Cytotoxicity in Molt-4 cells (% of inhibition compared to control); for inhibition at 1 µM: 0.001 mM; for inhibition at 10 µM: 0.01 mM; for inhibition at 100 µM: 0.1 mM
Protocol: (§1) Measurement of reduction in the number of living cells was determined by the CellTiter 96 Aqueous Non-Radioactive Cell Proliferation Assay (XTT Cell Proliferation Kit assay (Biological industries, Beit-Haemek, Israel)). Upon completion of a given experiment, MTS (a tetrazolium compound) at 333 μg/ml+phenazine methosulfate (at 25 μM) was added to each well of the 96-well plate for 1 hour at 37° C. This allowed for development of a color reaction in which dehydrogenases reduce the MTS in metabolically active cells. Soluble MTS formazan product was measured at a wavelength of 490 nm using a CERES 900 HDI ELISA reader (Bio-Tek Instruments, Inc, Highland Park, Vt.).
(§2) Percentage of Optical density is directly proportional to the number of living cells in culture. Cytotoxicity (%) was calculated in the following way: [(OD of control cells —OD of drug-treated cells)/OD of control cells]×100.
The cytotoxicity of jasmonate derivatives A1-A6, B1 and B2 was compared to that of the previously studied jasmonate, methyl jasmonate (MJ). The cytotoxicity of each compound was determined in Molt-4-Human acute lymphoblastic leukemia cell-line.
[…] Each experimental point was performed in triplicates. Untreated cells were used as control. The test compounds were prepared as a stock of 100 mM in DMSO. Dilutions were performed in culture medium and DMSO so that the maximal concentration of DMSO in each well was 0.5%. […] Cytotoxicity and optical density were determined as described above.

[2] = tested on: normal peripheral blood lymphocytes (PBL), -PHA/TPA; test: Cytotoxicity in normal PBL without PHA/TPA (Example 2); assay type: cell-based, Human; settings: for IC20 / IC50: Homo sapiens, Lymphocyte, 24 h, PBL -PHA/TPA, one day incubation; for Selective cytotoxic effect: leukemic cells vs normal lymphocytes: Molt-4 vs PBL, FIGS. 4A and 4B
Protocol: as §1, §2
(§3) Molt-4 (leukemia) cells (at 2.5×10^4/ml), and normal peripheral blood lymphocytes (PBL, at 2×10^5/ml) were incubated in 96-well plates for one day in the presence of different concentrations of methyl jasmonate, (MJ—disclosed in U.S. Pat. No. 6,469,061), and compounds A3 and A4 of the present invention at concentrations: of 0.001, 0.01, 0.1 and 0.5 mM. In some experiments, PBL were pre-incubated with 0.8 μg/ml phytohemagglutinin (PHA)+5 ng/ml TPA for […], to induce entrance into the cell cycle. These cells proliferate and therefore are similar in that respect to cancer cells, making the comparison more valid. The optical density that represented viable cells was determined as described above.

[3] = tested on: Molt-4 (leukemia) cells; test: Cytotoxicity in Molt-4 cells (Example 2, selectivity); assay type: cell-based; settings: Homo sapiens, 24 h; Molt-4, one day incubation
Protocol: as §1, §2, §3

[4] = tested on: normal peripheral blood lymphocytes (PBL), +PHA/TPA; test: Cytotoxicity in normal PBL pre-incubated with PHA/TPA (Example 2); assay type: cell-based; settings: Homo sapiens, Lymphocyte, 24 h, one day incubation
Protocol: as §1, §2, §3

[5] = tested on: Fibroblasts; test: Cytotoxicity of B3 in fibroblasts (Example 4); assay type: cell-based; settings: Homo sapiens, Fibroblast, 24 hours, n=2
Protocol: as §1, §2
(§4) Compound B3 was added at concentration ranging from 0.0025-1 mM for 24 hours. The number of repeats for each experiment is indicated by n. Untreated cells were used as control. Compound B3 was prepared as a stock of 100 mM in 100% DMSO and dilutions in medium were prepared as described above. Optical density and percentage of Cytotoxicity were determined as described above.

[6] = tested on: PBL, healthy donors; test: Cytotoxicity of B3 in PBL of healthy donors (Example 4); assay type: cell-based, Human
Protocol: as §1, §2
(§5) Mononuclear cells were isolated from peripheral blood of healthy donors and treated as described above. The non-adherent PBL were pre-incubated without PHA and TPA. Molt-4 and PBL cells were seeded in 96-well plates as described above.
(§6) Compound B3 was added at concentration ranging from 0.0025-1 mM for 24 hours. The number of repeats for each experiment is indicated by n. Untreated cells were used as control. […] Optical density and percentage of Cytotoxicity were determined as described above.

[7] = tested on: Molt-4 cell line; test: Cytotoxicity of different batches of B3 towards Molt-4 (Example 5); assay type: cell-based, Human
Protocol: as §1, §2
The IC50 values in Molt-4 cells for B3 were 0.06 mM in average. For cytotoxicity evaluation in different cell lines B3-IV was used.

[8] = tested on: Molt 4 cell line; test: ATP depletion in Molt-4 (CellTiter-Glo luminescent assay, Example 7); assay type: cell-based; settings: Homo sapiens; Molt-4, 1 hr exposure
Protocol: The effect of methyl jasmonate and compound B3 on ATP level depletion is studied in the Molt 4 cell line using ATP kit and luminometer (Cell titer—Glo Luminescent, cell viability assay, Promega, code G7571, Ref.)
Cell preparation: Cells (Molt 4) were seeded in 96-well opaque-walled plates. The number of cells (in a volume of 100 μL/well) was: 5×10^4 cells/well. Control wells contained 100 μL medium without cells (background luminescence) Incubations were performed at 37° C., 6% CO2, using the following culture medium: RPMI 1640, 10% FCS, 2 mM L-Glutamine and penicillin 200 U/ml+200 μg/ml streptomycin or equivalent. For the cell viability assay, cells were incubated for 12 min-24 hr. in the absence or presence of methyl jasmonate or several jasmonate derivatives of the present invention at 0.05-4 mM. Reagent Preparation The CellTiter-Glo® buffer and the lyophilized substrate were thawed and equilibrated to room temperature. The buffer was mixed with the substrate by vortexing for 1 minute. […]
The plates were equilibrated to room temperature [25° C.] for 30 min. […] The plates were allowed to incubate at 25° C. for 10 min in the Luminoskan to stabilize luminescence signal. Results were read through Record luminescence [Thermo-Luminoskan Ascent] or equivalent, with integration time of 2000 m. seconds per well and blanking time 5%. […] Percent of cytotoxicity was determined described above.

[9] = tested on: Molt-4; test: Cytotoxicity of B3 in Molt-4 (Example 4); assay type: cell-based; settings: Homo sapiens; Molt-4, 24 hours, n=12
Protocol: as §1, §2, §5, §6

[10] = tested on: CLL (PBL, chronic lymphocytic leukemia); test: Cytotoxicity of B3 in CLL cells (Example 4); assay type: cell-based; settings: Homo sapiens, CLL cell, 24 hours, n=14
Protocol: as §1, §2
Cytotoxicity of compound B3 was evaluated in 1) Molt 4 cells (an in-vitro model for transformed cells); 2) PBL (an ex vivo model for normal cells); and 3) PBL CLL—Peripheral blood lymphocytes collected from chronic lymphocytic leukemia patients (an ex vivo model for ex vivo transformed cells). […]
Compound B3 was added at concentration ranging from 0.0025-1 mM for 24 hours. […] Optical density and percentage of Cytotoxicity were determined as described above.

[11] = tested on: HTB38; test: Cytotoxicity of B3 in HTB38 (Example 4); assay type: cell-based; settings: Homo sapiens, HTB-38; HTB38, 24 hours, n=3
Protocol: as §1, §2, §4

[12] = tested on: B16; test: Cytotoxicity of B3 in B16 (Example 4); assay type: cell-based; settings: Mus musculus; B16, 24 hours, n=6
Protocol: as §1, §2, §4

[13] = tested on: LNCaP; test: Cytotoxicity of B3 in LNCaP (Example 4); assay type: cell-based; settings: Homo sapiens, 24 hours, n=4
Protocol: as §1, §2, §4

[14] = tested on: NCI H460; test: Cytotoxicity of B3 in NCI H460 (Example 4); assay type: cell-based; settings: Homo sapiens; NCI H460, 24 hours, n=3
Protocol: as §1, §2, §4

[15] = tested on: Molt-4 (leukemia) cells; settings: cited from earlier work
[16] = tested on: lymphomas; settings: mice; cited from earlier work
[17] = tested on: normal peripheral blood lymphocytes (PBL), -PHA/TPA; settings: cited from earlier work

## CCCCCC1c2nc(NC(=O)c3cnccn3)sc2CC1CC(=O)NC1CC1 (centres unmarked) [Compound A1]
[1]
  Cytotoxic potency at 0.1 mM, first screening: very potent
  Cytotoxic potency, second screen: most potent
  Cytotoxic potency compared to methyl jasmonate, first screening: more potent than methyl jasmonate

## CCCCCC1c2nc(N)sc2CC1CC(=O)N1CCN(C)CC1 (centres unmarked) [Compound A2]
[1]
  Cytotoxic potency compared to methyl jasmonate, first screening: more potent than methyl jasmonate

## CCCCCC1c2nc(NC(=O)Cc3cccs3)sc2CC1CC(=O)O (centres unmarked) [Compound A3]
[2]
  IC20: 30 µM
  IC50: 250 µM
  Selective cytotoxic effect: leukemic cells vs normal lymphocytes: without exerting a substantial effect on normal lymphocytes
[1]
  Cytotoxic potency at 0.1 mM, first screening: very potent
  Cytotoxic potency, second screen: most potent
  Cytotoxic potency compared to methyl jasmonate, first screening: more potent than methyl jasmonate
  Cytotoxic potency compared to methyl jasmonate, third screen: significantly more potent than methyl jasmonate
[3]
  IC20: 10 µM
  IC50: 50 µM
[4]
  IC20: 70 µM
  IC50: 300 µM

## CCCCCC1c2nc(-c3ccccc3)sc2CC1CC(=O)N1CCC(O)CC1 (centres unmarked) [Compound A4]
[2]
  IC20: < 10 µM
  Selective cytotoxic effect: leukemic cells vs normal lymphocytes: without exerting a substantial effect on normal lymphocytes
[1]
  inhibition at 1 µM: 4%
  inhibition at 10 µM: 10%
  inhibition at 100 µM: 96%
  Cytotoxic potency at 0.1 mM, first screening: very potent
  Cytotoxic potency, second screen: most potent
  Cytotoxic potency compared to methyl jasmonate, first screening: more potent than methyl jasmonate
  Cytotoxic potency compared to methyl jasmonate, third screen: significantly more potent than methyl jasmonate
[3]
  IC20: < 10 µM
  IC50: 45 µM
[4]
  IC20: 25 µM

## CCCCCC1c2nc(NS(=O)(=O)c3cccc(F)c3)sc2CC1CC(=O)OC (centres unmarked) [Compound A5]
[1]
  Cytotoxic potency at 0.1 mM, first screening: very potent
  Cytotoxic potency compared to methyl jasmonate, first screening: more potent than methyl jasmonate

## CCCCCC1c2nc(Nc3ccccc3)sc2CC1CC(=O)NCCOC (centres unmarked) [Compound A6]
[1]
  Cytotoxic potency at 0.1 mM, first screening: very potent
  Cytotoxic potency, second screen: most potent
  Cytotoxic potency compared to methyl jasmonate, first screening: more potent than methyl jasmonate

## CC/C=C\CC1C(=O)CCC1CCOC(=O)CC1CCC(=O)C1C/C=C\CC (centres unmarked) [Compound B3]
[5]
  IC50: > 500 µM
[6]; Homo sapiens, PBL healthy donors, without PHA/TPA, 24 hours, n=12
  IC50: 1000 µM
[6]; Molt-4, CLL vs PBL, FIG. 5
  Selective cytotoxicity towards cancer cells: exhibits selective cytotoxicity towards cancer cells
[7]; Homo sapiens, MOLT-4, Molt-4
  IC50: 60 µM
[7]; Molt-4, listed as B3 (IV)
  IC50: 50 µM
[7]; Molt-4, listed as B3 (V)
  IC50: 80 µM
[8]
  IC50: 500 µM
[9]
  IC50: 70 µM
[10]
  IC50: 250 µM
[11]
  IC50: > 1000 µM
[12]
  IC50: 700 µM
[13]
  IC50: > 1000 µM
[14]
  IC50: > 1000 µM

## CC/C=C\CC1C(=O)CCC1CC(=O)OC (centres unmarked) [MJ, methyl jasmonate, reference compound]
[2]
  IC20: > 500 µM
  IC50: > 500 µM
[7]; Homo sapiens, MOLT-4, Molt-4
  IC50: 600 µM
[15]
  Cytotoxicity to Molt-4 cells (previously reported data): cytotoxic to Molt-4 cells
[8]
  IC50: 500 µM
[1]
  inhibition at 1 µM: 6%
  inhibition at 10 µM: 5%
  inhibition at 100 µM: 17%
[3]
  IC20: 30 to 50 µM
  IC50: 100 to 500 µM
[4]
  IC20: > 500 µM
  IC50: > 500 µM
[16]
  Prevention of development of lymphomas: effective in preventing development of lymphomas in mice
[17]
  Toxicity to normal lymphocytes (previously reported data): almost not toxic to normal lymphocytes
